Results taken from US20220304996A1, “REBAMIPIDE FOR USE IN PROPHYLAXIS AND TREATMENT OF CELIAC DISEASE” (SQUARE POWER LTD., priority 2019, published 2022).

How the values were obtained:
Type in all cases: in vivo, human
celiac disease [1] = experiment: Elimination-provocation (gluten challenge) test: duodenal biopsy, villous height to crypt depth ratio; details: for Vh/Cd (villous height to crypt depth ratio): duodenal biopsy
Source text: (§1) To study the effect of rebamipide on the celiac disease, a gluten challenge test was employed. Adult patients admitted into the test were stabilized on a gluten-free diet (GFD) leading to disappearance of the disease symptoms for at least 12 months. All participants were previously diagnosed by a physician for the celiac disease using upper endoscopy and duodenal biopsy. The gluten-free diet adherence was confirmed by high villous height/crypt depth ratio (Vh/Cd>2-3) and decline in anti-tTG antibody levels (less than 10 U/mL) after the exclusion of gluten from the diet. Patients were divided into two groups taking either rebamipide 100 mg three times a day or placebo just before each major meal. Both groups continued the gluten-free diet. The gluten challenge test was carried out three month (day 90) after the start of the treatment. Patients were given one slice of white bread comprising about 2.7 g of wheat gluten every day for the period of 6 weeks but otherwise maintained their usual gluten-free diet. Both groups continued receiving either rebamipide or placebo treatment. Duodenal biopsy was performed at the beginning (day 0) and at the end (day 132) of the study period. Villous height to crypt depth ratio (Vh/Cd) was determined by measuring the mean height/mean depth of adjacent villi/crypts by a pathologist. The ratio of <2 is regarded as indicative of villous atrophy and crypt hyperplasia.

intestinal permeability = experiment: Elimination-provocation (gluten challenge) test: urinary lactulose/mannitol (La/Ma) fractional excretion ratio; details: for La/Ma (urinary lactulose/mannitol fractional excretion ratio): rebamipide 100 mg three times a day
Source text: To study the effect of rebamipide on the celiac disease, a gluten challenge test was employed. Adult patients admitted into the test were stabilized on a gluten-free diet (GFD) leading to disappearance of the disease symptoms for at least 12 months. All participants were previously diagnosed by a physician for the celiac disease using upper endoscopy and duodenal biopsy. The gluten-free diet adherence was confirmed by high villous height/crypt depth ratio (Vh/Cd>2-3) and decline in anti-tTG antibody levels (less than 10 U/mL) after the exclusion of gluten from the diet. Patients were divided into two groups taking either rebamipide 100 mg three times a day or placebo just before each major meal. Both groups continued the gluten-free diet. The gluten challenge test was carried out three month (day 90) after the start of the treatment. Patients were given one slice of white bread comprising about 2.7 g of wheat gluten every day for the period of 6 weeks but otherwise maintained their usual gluten-free diet. Both groups continued receiving either rebamipide or placebo treatment. The intestinal permeability was measured using the standard urinary lactulose/mannitol (La/Ma) fractional excretion ratio at the beginning of the lest, before and after 6-week challenge. The La/Ma test is based on a different absorption of non-metabolized sugars. In the healthy intestine, monosaccharides (e.g. mannitol) are passively absorbed through the intestinal mucosa, while larger disaccharide molecules (e.g. lactulose) are normally almost not absorbed. On the contrary, patients with the celiac disease have a consistent increase in the absorption of lactulose (via the paracellular route) due to increased permeability of the intestine and a reduction in the absorption of mannitol (via the transcellular route) due to a reduction in surface area as a result of villous atrophy, resulting in an increase in the La/Ma ratio.

celiac disease [2] = experiment: Elimination-provocation (gluten challenge) test: Gastrointestinal Symptom Rating Scale (GSRS); details: for GSRS (mean total score): rebamipide 100 mg three times a day
Source text: To study the effect of rebamipide on the celiac disease, a gluten challenge test was employed. Adult patients admitted into the test were stabilized on a gluten-free diet (GFD) leading to disappearance of the disease symptoms for at least 12 months. All participants were previously diagnosed by a physician for the celiac disease using upper endoscopy and duodenal biopsy. The gluten-free diet adherence was confirmed by high villous height/crypt depth ratio (Vh/Cd>2-3) and decline in anti-tTG antibody levels (less than 10 U/mL) after the exclusion of gluten from the diet.
Patients were divided into two groups taking either rebamipide 100 mg three times a day or placebo just before each major meal. Both groups continued the gluten-free diet. The gluten challenge test was carried out three month (day 90) after the start of the treatment. Patients were given one slice of white bread comprising about 2.7 g of wheat gluten every day for the period of 6 weeks but otherwise maintained their usual gluten-free diet. Both groups continued receiving either rebamipide or placebo treatment.
CD symptoms were weekly evaluated by the Gastrointestinal Symptom Rating Scale (GSRS) questionnaire, an instrument that is widely used in research on celiac disease and other gastrointestinal disorders (Svedlund J, Sjodin I, Dotevall G. GSRS—a clinical rating scale for gastrointestinal symptoms in patients with irritable bowel syndrome and peptic ulcer disease. Dig Dis Sci 1988; 33:129-134). It consists of 15 questions that are grouped into five domains (diarrhea, abdominal pain, indigestion, constipation, and reflux), which are combined into a total score calculated as a mean of all 15 questions. The scoring is based on a Likert scale from 1 to 7 points, where 1 point indicates minimal gastrointestinal symptoms and 7 points the most severe symptoms.

anti-tTG IgA antibody = experiment: Elimination-provocation (gluten challenge) test: serum anti-tTG IgA antibody ELISA
Source text: as §1, with “Serum mean anti-tTG IgA antibody levels were” for “Duodenal biopsy was performed at the beginning (day 0) and at the end (day 132) of the study period. Villous height to crypt depth ratio (Vh/Cd) was”, “an enzyme-linked immunosorbent assay (ELISA) and” for “measuring”, “difference at baseline” for “mean height/mean depth of adjacent villi/crypts by a pathologist. The ratio of <2 is regarded as indicative of villous atrophy”, “after 6-week challenge was compared.” for “crypt hyperplasia.”

[3] = day 132, after 6-week gluten challenge, rebamipide 100 mg three times a day

In the case of O=C(NC(Cc1cc(=O)[nH]c2ccccc12)C(=O)O)c1ccc(Cl)cc1 (stereo not drawn) [Rebamipide, 2-[(4-chlorobenzoyl)amino]-3-(2-oxo-1H-quinolin-4-yl)propanoic acid], the “change from baseline to post treatment in villus height to crypt depth ratio” value (celiac disease [1]; after 6 weeks of daily gluten intake) was “didn't exhibit negative changes”, the “Vh/Cd (villous height to crypt depth ratio)” value (celiac disease [1]; day 0 (baseline)) was 2.9 and the “Vh/Cd (villous height to crypt depth ratio)” value (celiac disease [1]; [3]) was 3.1. For the same compound, the “La/Ma ratio versus baseline” value (intestinal permeability; at the end of the gluten challenge) was “remained near the baseline”, the “La/Ma (urinary lactulose/mannitol fractional excretion ratio)” value (intestinal permeability; day 0 (baseline)) was 0.057 and the “La/Ma (urinary lactulose/mannitol fractional excretion ratio)” value (intestinal permeability; day 90, before gluten challenge) was 0.038. For the same compound, the “La/Ma (urinary lactulose/mannitol fractional excretion ratio)” value (intestinal permeability; day 132, after 6-week gluten challenge) was 0.048, the “difference in mean GSRS scores, rebamipide lower than placebo” value (celiac disease [2]; at the end of the study (day 132)) was 0.6 units and the “GSRS (mean total score)” value (celiac disease [2]; day 0 (baseline), adult celiac patients on gluten-free diet) was 2.0. For the same compound, the “GSRS (mean total score)” value (celiac disease [2]; day 90, after three month pretreatment, before gluten challenge) was 1.7, the “GSRS (mean total score)” value (celiac disease [2]; day 132, after 6-week gluten challenge (about 2.7 g wheat gluten every day)) was 1.8 and the “mean anti-tTG IgA antibody titers” value (anti-tTG IgA antibody; after the gluten challenge) was < 10 U/ml. For the same compound, the “anti-tTG IgA (serum mean antibody level)” value (anti-tTG IgA antibody; day 0 (baseline)) was 3.9 U/ml, the “anti-tTG IgA (serum mean antibody level)” value (anti-tTG IgA antibody; day 90, before gluten challenge, rebamipide 100 mg three times a day) was 4.3 U/ml and the “anti-tTG IgA (serum mean antibody level)” value (anti-tTG IgA antibody; [3]) was 7.8 U/ml.
